For test [1], the system named is transgenic APPIn mice (London mutant human APP). Briefly: Morris water maze test in transgenic APPIn mice. The format is in vivo, mouse. The following applies: icv 0.015 mg/kg/day, 28 days, p<0.005. The method, then:
Transgenic mice expressing human APP containing the London mutation (APPIn) mimic AD function and pathology in that they are cognitively deficient, have brain amyloid plaque and elevated Aβ (8). […] CA074Me or E64d were administered by icy infusion in brains (0.015 mg/kg/day) for 28 days (8 animals per treatment group).
Thus, irreversible cathepsin B inhibitors are efficacious in this AD animal model, causing an 80% improvement in cognitive function and a 50% decrease in amyloid plaque load and brain Aβ. Thus, these tests indicate that Cathepsin B inhibitors are effective at reversing the cognitive deficit caused by AD
The status of memory impairment in the APPIn or APPswe/In mice with and without administration of select compounds was assessed by the Morris water maze test. The water maze test is widely used in mouse AD animal models to evaluate cognitive impairment in such AD models. Water maze tests were conducted as previously described (87-89).
Drug-treated and vehicle-treated mice were tested in the Morris water maze test. Mice were trained in a 1.2 meter open field water maze. The pool was filled to a depth of 30 cm with water and maintained at 25° C. The escape platform (10 cm square) was placed 1 cm below the surface of the water. During the trials, the platform was removed from the pool. […] These trials were not recorded since they were for training purposes only. […]

For test [2], the system named is brain and synaptosomal Aβ. As to the kind of experiment: guinea pig brain and synaptosome Aβ by ELISA after icv infusion. The format is in vivo. Particulars: icv 0.15 mg/kg/day. The source says: Guinea pig (gp) is a natural, non-transgenic model of human APP processing gpAPP is 98% homologous to human APP, contains the human wild-type β-secretase site, and gpAβ is identical to human Aβ. Brain synaptosome preparations are enriched with neuronal synapses which are the sites at which regulated secretion occurs and are an in vivo measure of regulated secretory secretion CTFβ is an APP fragment that results from p-secretase cleavage of APP and reflects in vivo β-secretase activity. […] E64d was icy administered into gp brains (0.15 mg/kg/day) for 7 or 30 days. […] In FIG. 5b, total synaptosomal Aβ is shown.
CA074Me (0.15 mg/kg/day) was icy infused into gp brains with mini pumps. […] An equal reduction of Aβ40 and Aβ42 is consistent with the inhibitor affecting p-secretase activity
At the end of the treatment, the brains were isolated and extracted with guanidine hydrochloride and Aβ40 and Aβ42 levels were determined using ELISA.
Cathepsin B inhibitors were administered directly into the brain by icy infusion with minipumps in time course studies at different doses. Guinea pigs were infused with compounds using Alzet pumps (2.5 μl/hr, with compounds at 1 mg/ml in saline) for 7 and 30 days, and other times. This initial dose of compound was selected because E64d and CA074Me are effective at this dose. Each treatment group consisted of eight to ten guinea pigs, including the vehicle control group.
At the end of each experiment, animals were sacrificed and half the brain was taken for ELISA measurement of Aβ40 and Aβ42 levels. The other half was isolated for synaptosome preparations for ELISA measurement of Aβ40 and Aβ42 content in nerve terminals. Synaptosomes were prepared by homogenization in isotonic sucrose (320 mM), pH 7.4, 1 mM EDTA, 0.25 mM dithiothreitol, and 30 U/MI RNAse inhibitor. The homogenate was centrifuged at 1000×g for 10 minutes. The supernatant was loaded on a Sucrose-Percoll discontinuous gradient and centrifuged at 32,000×g for 5 minutes (80) Enriched synaptosomes were washed in PBS, and centrifuged at 12,000×g for 4 minutes. The supernatant was removed, and the synaptosome containing pellet was resuspended in 50% OptiPrep (Accurate Chemica. Westbury, N.Y.), loaded on an OptiPrep discontinuous flotation gradient (9, 12.5, 25, and 35%) and centrifuged at 10,000×g for 20 minutes. The synaptosomes were obtained at the […]
For quantitative analysis of Aβ peptides, an enzyme-linked immunosorbent assay (ELISA) was used to measure the levels of total Aβ, Aβtotal, Aβ40 and Aβ42 in the brains and synaptosomes of guinea pigs (Biosource International, Camarillo, Calif.) Aβtotal, Aβ40, Aβ42 was extracted from guinea pig brains or from synaptosomes by guanidine hydrochloride and quantified as described by the manufacturer. This assay extracted the total Aβ peptide from the brain (both soluble and aggregated). Tissue samples were homogenized in 5M guanidine buffer (5M guanidine HCl in 50 mM Tris-Cl, pH 8.3; Sigma-Aldrich, St. Louis, Mo.) at 1:10 w/v dilution. Homogenates were agitated at room temperature for 3-4 hours, then stored at −20° C. The day before running the ELISA, the tissue samples were diluted further 1:10 to provide a final guanidine concentration of 0.5M. These diluted homogenates were spun down at 14,000 rpm for 20 minutes at 4° C. and supernatants used for Aβ determination by ELISA (84-86). Brain and synaptosome extracts were assayed as diluted in 0.5M guanidine. In addition, Aβ40 and Aβ42 were assayed using ELISA using 6E10 as the capture antibody and Rb209 and Rb321 as reporter antibodies, respectively, for Aβ40 and Aβ42 (96).
(In general: In an ELISA, binding on a coated surface is turned into a signal by an enzyme label.)

Results on two compounds are retold here after patent US20100216875A1, “METHODS OF TREATING ALZHEIMER'S DISEASE” (priority 2006, published 2010).

In the case of `CCCNC(=O)[C@H]1O[C@@H]1C(=O)N[C@H](C(=O)N1CCC[C@H]1C(=O)OC)[C@@H](C)CC` [CA074Me], the “average latency period (Morris water maze) vs control” value in test [1] is “significantly lower average latency period”. Besides, in test [2] (7 days), the “reduction of Aβ40 in brain extracts” value came out at 50%, the “reduction of Aβ42 in brain extracts” value stood at 50%, the “reduction of total Aβ in brain extracts” value came to 50% and the “reduction of total synaptosomal Aβ” value was determined as 45%. In test [2] (30 days), the “reduction of Aβ40 in brain extracts” value turned out to be 50%, the “reduction of Aβ42 in brain extracts” value came out at 50%, the “reduction of total Aβ in brain extracts” value came out at 60% and the “reduction of total synaptosomal Aβ” value is on record as 50%. Also, in test [2] (duration not stated), the “reduction of Aβ40 in the brain” value is listed as 50-60% and the “reduction of Aβ42 in the brain” value was 50-60%.
Regarding `CCOC(=O)[C@H]1O[C@@H]1C(=O)N[C@@H](CC(C)C)C(=O)NCCC(C)C` [E64d], the “average latency period (Morris water maze) vs control” value in test [1] was “significantly lower average latency period”. For the same compound, the “reduction of total Aβ in brain extracts” value in test [2] (7 days) amounted to 30%; in test [2] (30 days), 50%. The “reduction of total synaptosomal Aβ” value in test [2] (7 days) amounted to 27%; in test [2] (30 days) it was 50%. Further, the “reduction of brain Aβ” value in test [2] (duration not stated) came to 50%.
